Measurements taken from BindingDB's records for doi:10.7270/Q2TX3CTT (Broad Institute, 2010).
Counter-ions that a name gives are not always drawn.

Molecular target: Glycogen synthase kinase-3 beta (Homo sapiens, UniProt P49841)
Assay: GSK3beta kinase inhibitor potency, dose response, biochemical, luminescence, cell-free homogeneous, retest (AID 434954)

Glycogen synthase kinase-3 beta, sequence (P49841 whole entry): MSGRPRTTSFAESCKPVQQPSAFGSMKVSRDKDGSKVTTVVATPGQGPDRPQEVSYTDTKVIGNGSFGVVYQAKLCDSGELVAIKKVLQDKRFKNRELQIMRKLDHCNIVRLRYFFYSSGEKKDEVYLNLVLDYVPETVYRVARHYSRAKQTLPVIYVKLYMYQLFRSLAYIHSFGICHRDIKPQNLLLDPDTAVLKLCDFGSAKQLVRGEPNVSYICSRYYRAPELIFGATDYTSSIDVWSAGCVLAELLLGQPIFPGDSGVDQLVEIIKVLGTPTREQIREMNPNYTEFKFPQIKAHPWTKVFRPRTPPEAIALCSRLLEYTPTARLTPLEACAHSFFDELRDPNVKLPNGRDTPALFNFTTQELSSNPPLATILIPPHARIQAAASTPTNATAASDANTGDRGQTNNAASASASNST

Compound: CCC1(C)NC(=O)N(CC(=O)Nc2sc3c(c2C(N)=O)CCC3)C1=O (stereo not given) [2-[2-[4-ethyl-4-methyl-2,5-bis(oxidanylidene)imidazolidin-1-yl]ethanoylamino]-5,6-dihydro-4H-cyclopenta[b]thiophene-3-carboxamide]
- EC50: 30.3 µM

Compound: Nc1nc(NCCOCCO)nc(Nc2cccc(F)c2)c1[N+](=O)[O-] [2-[2-[[4-azanyl-6-[(3-fluorophenyl)amino]-5-nitro-pyrimidin-2-yl]amino]ethoxy]ethanol]
- EC50: 10.7 µM

Compound: O=C1C[C@@H](c2ccc(O)c(O)c2)Oc2cc(O)cc(O)c21 [2-[3,4-bis(oxidanyl)phenyl]-5,7-bis(oxidanyl)-2,3-dihydrochromen-4-one]
- EC50: > 300 µM

Compound: COc1ccc(Nc2nc(Nc3ccc(OC)cc3)nc(-n3[nH]c(=O)c(C)c3C)n2)cc1 [2-[4,6-bis(4-methoxyanilino)-1,3,5-triazin-2-yl]-3,4-dimethyl-1H-pyrazol-5-one]
- EC50: > 300 µM

Compound: Cc1ccc(C)c(S(=O)(=O)N2CCN(C(C(=O)Nc3ccc(F)cc3)c3ccccc3)CC2)c1 (stereo not given) [2-[4-(2,5-dimethylphenyl)sulfonyl-1-piperazinyl]-N-(4-fluorophenyl)-2-phenylacetamide]
- EC50: > 300 µM

Compound: CC1CN(C(=O)CCCN2C(=O)c3ccccc3C2=O)CC(C)O1 (stereo not given) [2-[4-(2,6-dimethylmorpholin-4-yl)-4-oxobutyl]isoindole-1,3-dione]
- EC50: > 300 µM

Compound: O=C(CN1CCN(S(=O)(=O)c2ccccc2)CC1)Nc1ccc([N+](=O)[O-])cc1 [2-[4-(benzenesulfonyl)-1-piperazinyl]-N-(4-nitrophenyl)acetamide]
- EC50: > 300 µM

Compound: O=C(O)COc1ccc(C(=O)c2ccccc2)cc1 [2-[4-(phenylcarbonyl)phenoxy]ethanoic acid]
- EC50: > 300 µM

Compound: O=C(CSc1nnc(COc2ccc(Cl)cc2)o1)N1c2ccccc2CCc2ccccc21 [2-[5-(4-Chloro-phenoxymethyl)-[1,3,4]oxadiazol-2-ylsulfanyl]-1-(10,11-dihydro-dibenzo[b,f]azepin-5-yl)-ethanone]
- EC50: > 300 µM

Compound: Nc1nc(Nc2ccccc2F)nc(NCCO)c1[N+](=O)[O-] [2-[6-Amino-2-(2-fluoro-phenylamino)-5-nitro-pyrimidin-4-ylamino]-ethanol]
- EC50: 15.6 µM

Compound: COc1ccc(Nc2nc(N)c([N+](=O)[O-])c(NCCO)n2)cc1 [2-[6-Amino-2-(4-methoxy-phenylamino)-5-nitro-pyrimidin-4-ylamino]-ethanol]
- EC50: 2.6 µM

Compound: Clc1ccc(CSc2nnc(-c3ccncc3)o2)c(Cl)c1 [2-[(2,4-dichlorobenzyl)thio]-5-(4-pyridyl)-1,3,4-oxadiazole]
- EC50: 6.31 µM

Compound: O=C(O)c1ccccc1Nc1ccccc1C(=O)O [2-[(2-carboxyphenyl)amino]benzoic acid]
- EC50: > 300 µM

Compound: O=C(O)c1ccccc1Nc1ccnc(Cl)n1 [2-[(2-chloro-4-pyrimidinyl)amino]benzoic acid]
- EC50: > 300 µM

Compound: Fc1cccc(Cl)c1CSc1nnc(-c2ccncc2)o1 [2-[(2-chloro-6-fluorophenyl)methylthio]-5-pyridin-4-yl-1,3,4-oxadiazole]
- EC50: 9.25 µM

Compound: Cc1ccccc1-c1nnc(SCc2ccccc2F)o1 [2-[(2-fluorobenzyl)thio]-5-(2-methylphenyl)-1,3,4-oxadiazole]
- EC50: > 300 µM

Compound: Cc1ccc(-c2nnc(SCc3ccccc3F)o2)cc1 [2-[(2-fluorobenzyl)thio]-5-(4-methylphenyl)-1,3,4-oxadiazole]
- EC50: > 300 µM

Compound: NNc1nccc(Nc2ccccc2C(=O)O)n1 [2-[(2-hydrazinyl-4-pyrimidinyl)amino]benzoic acid]
- EC50: 2.92 µM

Compound: Cc1ccccc1CSc1nnc(-c2ccncc2)o1 [2-[(2-methylphenyl)methylsulfanyl]-5-pyridin-4-yl-1,3,4-oxadiazole]
- EC50: 22.1 µM

Compound: Cc1ccccc1CSc1nc2n(n1)C(c1cccs1)C1C(=O)CCCC1=N2 (stereo not given) [2-[(2-methylphenyl)methylsulfanyl]-9-thiophen-2-yl-5,6,7,9-tetrahydro-1H-[1,2,4]triazolo[5,1-b]quinazolin-8-one]
- EC50: > 300 µM

Compound: N#CC(C#N)=Cc1cc2ccccc2nc1N1CCOCC1 [2-[(2-morpholin-4-ylquinolin-3-yl)methylidene]propanedinitrile]
- EC50: > 300 µM

Compound: O=C(O)c1ccccc1NC(=O)c1ccccc1Nc1ccccc1 [2-[(2-phenylazanylphenyl)carbonylamino]benzoic acid]
- EC50: > 300 µM

Compound: CC(=O)c1coc2ccc(OCC(=O)O)cc12 [2-[(3-acetyl-5-benzofuranyl)oxy]acetic acid]
- EC50: 56.6 µM

Compound: CC1CCN(C(=O)CSc2nc(N)c3c4c(sc3n2)CN(C)CC4)CC1 [2-[(4-azanyl-7-methyl-6,8-dihydro-5H-pyrido[4,5]thieno[1,2-c]pyrimidin-2-yl)sulfanyl]-1-(4-methylpiperidin-1-yl)ethanone]
- EC50: > 300 µM

Compound: Clc1ccc(CSc2nnc(-c3ccncc3)o2)cc1 [2-[(4-chlorobenzyl)thio]-5-(4-pyridyl)-1,3,4-oxadiazole]
- EC50: 25.9 µM

Compound: CC1CCc2c(sc(Nc3nc4c(F)cccc4s3)c2C(N)=O)C1 (stereo not given) [2-[(4-fluoranyl-1,3-benzothiazol-2-yl)amino]-6-methyl-4,5,6,7-tetrahydro-1-benzothiophene-3-carboxamide]
- EC50: > 300 µM

Compound: Cc1ccccc1-c1nnc(SCc2ccc(F)cc2)o1 [2-[(4-fluorophenyl)methylsulfanyl]-5-(2-methylphenyl)-1,3,4-oxadiazole]
- EC50: > 300 µM

Compound: Fc1ccc(CSc2nnc(-c3cccnc3)o2)cc1 [2-[(4-fluorophenyl)methylthio]-5-(3-pyridinyl)-1,3,4-oxadiazole]
- EC50: > 300 µM

Compound: N=C(N)N/N=C1/C(=O)Nc2ccc(Br)cc21 [2-[(5-bromo-2-oxo-3-indolyl)amino]guanidine;hydrochloride]
- EC50: 31.4 µM

Compound: Cc1cc(NC(=O)CSc2nc(O)c(C#N)c(-c3ccccc3)n2)no1 [2-[(5-cyano-4-oxidanylidene-6-phenyl-1H-pyrimidin-2-yl)sulfanyl]-N-(5-methyl-1,2-oxazol-3-yl)ethanamide]
- EC50: > 300 µM

Compound: N#Cc1c(O)nc(SCC(=O)Nc2nnc(C(F)(F)F)s2)nc1-c1ccccc1 [2-[(5-cyano-4-oxo-6-phenyl-1H-pyrimidin-2-yl)sulfanyl]-N-[5-(trifluoromethyl)-1,3,4-thiadiazol-2-yl]acetamide]
- EC50: > 300 µM

Compound: N#Cc1c(-c2ccccc2)nc(SCC(=O)NC2CCCCC2)[nH]c1=O [2-[(5-cyano-4-oxo-6-phenyl-1H-pyrimidin-2-yl)sulfanyl]-N-cyclohexylacetamide]
- EC50: > 300 µM

Compound: CNC(=O)NC(=O)CSc1nc(-c2cccs2)c(C#N)c(=O)[nH]1 [2-[(5-cyano-4-oxo-6-thiophen-2-yl-1H-pyrimidin-2-yl)thio]-N-(methylcarbamoyl)acetamide]
- EC50: 2.05 µM

Compound: N#Cc1c(-c2ccccc2)nc(SCC(=O)N(c2ccccc2)c2ccccc2)[nH]c1=O [2-[(5-cyano-6-oxo-4-phenyl-1,6-dihydro-2-pyrimidinyl)thio]-N,N-diphenylacetamide]
- EC50: > 300 µM

Compound: CCn1c(SCC(=O)Nc2nccs2)nnc1C1CC1 [2-[(5-cyclopropyl-4-ethyl-1,2,4-triazol-3-yl)sulfanyl]-N-(1,3-thiazol-2-yl)ethanamide]
- EC50: > 300 µM

Compound: CCn1c(SCC(=O)Nc2ccc(F)cc2)nnc1C1CC1 [2-[(5-cyclopropyl-4-ethyl-1,2,4-triazol-3-yl)sulfanyl]-N-(4-fluorophenyl)ethanamide]
- EC50: > 300 µM

Compound: CCOc1ccccc1NC(=O)CSc1nnc(C2CC2)n1CC [2-[(5-cyclopropyl-4-ethyl-1,2,4-triazol-3-yl)thio]-N-(2-ethoxyphenyl)acetamide]
- EC50: > 300 µM

Compound: COc1ccc2c(c1)=C(NN1C(=O)c3ccccc3C1=O)C(=O)N=2 [2-[(5-methoxy-2-oxidanylidene-indol-3-yl)amino]isoindole-1,3-dione]
- EC50: > 300 µM

Compound: N#Cc1ccccc1CSc1nnc(-c2ccncc2)o1 [2-[(5-pyridin-4-yl-1,3,4-oxadiazol-2-yl)sulfanylmethyl]benzenecarbonitrile]
- EC50: 20.7 µM

Compound: CSc1nc(SCC(=O)NCC2CCCO2)c2c3c(sc2n1)CN(C)CC3 (stereo not given) [2-[(7-methyl-2-methylsulfanyl-6,8-dihydro-5H-pyrido[2,3]thieno[2,4-b]pyrimidin-4-yl)sulfanyl]-N-(oxolan-2-ylmethyl)ethanamide]
- EC50: 22.8 µM

Compound: CCCc1cc(=O)[nH]c2nnc(SCC(=O)Nc3nccs3)n12 [2-[(7-oxidanylidene-5-propyl-1H-[1,2,4]triazolo[4,3-a]pyrimidin-3-yl)sulfanyl]-N-(1,3-thiazol-2-yl)ethanamide]
- EC50: > 300 µM

Compound: COc1ccc(OC)c(Nc2oc3cc(=O)ccc-3cc2C(N)=O)c1 [2-[(Z)-2,5-Dimethoxy-phenylimino]-7-hydroxy-2H-chromene-3-carboxylic acid amide]
- EC50: 11.9 µM

Compound: COc1cccc(C(=O)CN2C=CC=CC2=CN=O)c1 [2-[(hydroxyimino)methyl]-1-[2-(3-methoxyphenyl)-2-oxoethyl]pyridinium]
- EC50: > 300 µM

Compound: NC(=O)CN(c1ccc([N+](=O)[O-])cc1)S(=O)(=O)c1ccccc1 [2-[N-(benzenesulfonyl)-4-nitroanilino]acetamide]
- EC50: > 300 µM

Compound: Cc1csc(NC(=O)CN2C(=O)c3ccccc3C2=O)c1C(N)=O [2-[[2-(1,3-dioxo-2-isoindolyl)-1-oxoethyl]amino]-4-methyl-3-thiophenecarboxamide]
- EC50: > 300 µM

Compound: COC(=O)c1ccc2c(=O)n(CC3CCCO3)c(SCC(=O)Nc3ccccc3Cl)nc2c1 (stereo not given) [2-[[2-(2-chloroanilino)-2-keto-ethyl]thio]-4-keto-3-(tetrahydrofurfuryl)quinazoline-7-carboxylic acid methyl ester]
- EC50: > 300 µM

Compound: CCCC(NC(=O)Cc1c(C)c2c(cc(C)c3c(C)coc32)oc1=O)C(=O)O (stereo not given) [2-[[2-(3,4,9-trimethyl-7-oxofuro[2,3-f]chromen-8-yl)acetyl]amino]pentanoic acid]
- EC50: > 300 µM

Compound: O=C(O)c1ccccc1Nc1ccnc(C(F)(F)F)c1 [2-[[2-(trifluoromethyl)-4-pyridinyl]amino]benzoic acid]
- EC50: > 300 µM

Compound: COc1ccc(-c2nnc3ccc(SCC(N)=O)nn23)cc1OC [2-[[3-(3,4-dimethoxyphenyl)-[1,2,4]triazolo[4,3-b]pyridazin-6-yl]sulfanyl]ethanamide]
- EC50: > 300 µM

Compound: O=C(CSc1ccc2nnc(-c3ccc(F)cc3)n2n1)N1CCOCC1 [2-[[3-(4-fluorophenyl)-[1,2,4]triazolo[4,3-b]pyridazin-6-yl]sulfanyl]-1-morpholin-4-yl-ethanone]
- EC50: > 300 µM
